Results reported in patent publication US20250027086A1, “COMPOSITIONS AND METHODS FOR TREATMENT OF CANCERS USING MODIFIED siRNA-GEM AGENTS” (Sirnaomics, Inc., priority 2022, published 2025).

Assays:
OVCAR3 cells = assay: Cell viability in ovarian cancer cell line OVCAR3; type: cell-based; details: OVCAR3, 800 cells per well; FIG. 13(b)
Experimental: (§1) MIA PaCa-2, […], LS180, HT1376, HT29, H358, H1299, OVCAR-3, HTB-9 and Panc 10.05 cells were obtained from ATCC (Rockville, MD). MiaPaCa cells were cultured in DMEM medium supplemented with 10% FBS. H358, H1299, HTB-9, N87 and Panc 10.05 cells were cultured in DMEM/10% FBS; LS180 and HT1376 in EMEM/10% FBS; HT29 cells in McCoy5A/10% FBS; OVCAR-3 cells were incubated in RPMI/20% FBS. All cells were maintained at 37 degrees C. in an atmosphere containing 5% CO^2.
(§2) The day before transfection, cells were seeded in a 384-well plate at an optimal density of between 300 and 800 cells/well. […]
(§3) Ninety-six hours following the addition of GEM or transfection mixtures, the number of viable cells was determined with CellTiter-Glo®-2.0 reagent (Promega, Madison, WI) by measuring luminescent signal using a Cytation 5 plate reader (BioTek Inc, Winooski, VT). […]
(§4) Using the same or similar experimental condition as are described above in Example 1, the effects of (i) PGN7 (SEQ. ID No. 9-10) plus a non-signaling oligonucleotide (“NS”), (ii) BCLxL #5 (SEQ. ID No. 14)+NS, and (iii) PGN7 and BCLxL #5 in combination were evaluated and are shown in triple negative breast cancer (MDA-MB231) and ovarian cancer (OVCAR3) cell lines in FIGS. 13 (a)-(b). […]

[1] = tested on: pancreatic, lung and colon cancer cell lines; assay: Cell viability in pancreatic, lung and colon cancer cell lines; type: cell-based; details: single siRNA against non-silencing control; pancreatic, lung, colon; FIG. 6
Experimental: as §1
(§5) The day before transfection, cells were seeded in a 384-well plate at an optimal density of between 300 and 800 cells/well. The next day, ten 3-fold serial dilutions of single, modified-backbone siRNAs or PGN6/PGN7 siRNA and Gemcitabine (GEM) mixed with siRNAs: Wee1 #7, KRAS #1, MCL1 #3 or DM2-P47 siRNAs at 1:1 ratio were prepared and combined with diluted Lipofectamine RNAiMAX (Life Technologies, Carlsbad, CA). Within 20 minutes, 10 μl of the transfection mixtures were added to the cells in a 40 μL medium. The final concentrations of siRNAs or Gemcitabine in the wells ranged from 100 nM to 0.002 nM.
(§6) Ninety-six hours following the addition of GEM or transfection mixtures, the number of viable cells was determined with CellTiter-Glo®-2.0 reagent (Promega, Madison, WI) by measuring luminescent signal using a Cytation 5 plate reader (BioTek Inc, Winooski, VT). The treatment group (n=4) mean (±SD) was compared to those of non-treated controls and were reported as relative cell viability.
Using the same experimental conditions as are described above in Example 1, the efficacy on cell viability was evaluated for PGN6 (SEQ. ID Nos. 7-8), with and without lipofentamine (“lipo”) in three types of cancer cell lines. FIG. 3 (a)-(c) show the effects of PGN6, with and without lipo on cell viability at increasing siRNA levels in pancreatic cancer cell lines. FIG. 4 (a)-(b) similarly show the effects of these variants on cell viability in lung cancer cell lines; FIG. 5 (a)-(b) show the effects of these variants on cell viability in colon cancer cell lines. All data are shown as mean±SD. […]
Using the same experimental conditions as are described above in Example 1, the efficacy of STD1 (SEQ. ID Nos. 1-2), PGN6 (SEQ. ID Nos. 7-8) and PGN7 (SEQ. ID Nos. 9-10) were evaluated in three types of cancer cell lines. […]
Using the same experimental conditions as are described above in Example 1, the efficacy of PGN7 (SEQ. ID No. 9-10) alone and its combination with WEE1 #7 (SEQ. ID No. 13) was evaluated in three types of cancer cell lines. […]
Using the same experimental conditions as are described above in Example 1, the efficacy of PGN7 (SEQ. ID No. 9-10) and the combination of BCLxL #5 (SEQ. ID No. 14) and PGN7 was evaluated in three types of cancer cell lines. […]

[2] = tested on: HT1376, HTB-9, N87 and OVCAR-3 cell lines; assay: Cell viability in urinary bladder, gastric and ovarian cancer cell lines; type: cell-based; details: HT1376, HTB-9, N87, OVCAR-3; FIGS. 9-10
Experimental: as §1, §2, §3
Using the same or similar experimental condition as are described above in Example 1, the effects of PGN7 (SEQ. ID No. 9-10), Wee1 (SEQ. ID No. 13), BCLxL #5 (SEQ. ID No. 14) or the PGN7+Wee1, or PGN+BCLxL combinations were evaluated and are shown in HT1376 (400 cells/well) and HTB-9 (800 cells/well) urinary bladder cancer cell lines, N87 (600 cells/well) gastric cancer cell line, and OVCAR-3 (800 cells/well) ovarian cancer line in FIGS. 11 (a)-(d). […]

MiaPaCa-2 cells = assay: Cell viability (CellTiter-Glo) in MiaPaCa-2 pancreatic cancer cells after transfection; type: cell-based, human; details: in combination with lipofectamine; 96 h; n=4 (FIG. 2); read-out: IC50, MiaPaCa-2 cell viability
Experimental: as §1, §5, §6

MDA-MB231 cells = assay: Cell viability in triple negative breast cancer cell line MDA-MB231; type: cell-based; details: MDA-MB231, 400 cells per well; FIG. 13(a)
Experimental: as §1, §2, §3, §4

## PGN7: modified siRNA-GEM RNAi agent (SEQ. ID No. 9-10): sense 5′-AAGAAAgAgau[GEM]uGuAu[GEM]AAu-3′; antisense 5′-AuUGAuACAGAuCuCuUuCuU[GEM][GEM]dTdT-3′ (sense AAGAAAGAGATCTGTATCAAT; antisense ATTGATACAGATCTCTTTCTTCCTT; GEM modifications; 2'-modified bases; dTdT overhang; modified_base 1 OTHER; 2'-O-methyl modified nucleotide; modified_base 2 OTHER; modified_base 3 OTHER; modified_base 4 OTHER; modified_base 5 OTHER; modified_base 6 OTHER; modified_base 7 OTHER; 2'-fluoro modified nucleotide; modified_b; 2'-O-me)
OVCAR3 cells
  IC50: 0.5 nM
[1]
  reduction of cell viability: effective in reducing cell viability
[2]
  efficacy on cell viability: significant efficacy
MiaPaCa-2 cells
  IC50: 0.006 nM
MDA-MB231 cells
  IC50: 1.1 nM
